Experiments:
Test in all cases: relative viability (nuclei count vs DMSO), 5 days (fraction); higher = more cells survive
[1] = compound: CC(=O)c1c(C)c2cnc(Nc3ccc(N4CCNCC4)cn3)nc2n(C2CCCC2)c1=O [Palbociclib] + C[C@@H](Oc1cc(-c2cnn(C3CCNCC3)c2)cnc1N)c1c(Cl)ccc(F)c1Cl [Crizotinib] (partner 1 µM)
In short: (§1)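 Relative viability divides the nuclei count in treated wells by that in vehicle wells. Lung cancer cell lines were seeded in 1536-well plates, dosed by pin tool the next day, and fixed and stained after 5 days in one step with final 0.05% Triton X-100, 1% formaldehyde and 1 ug/ml Hoechst. Dosing was a single drug or a fixed anchor-drug dose plus five library-drug doses (not always all listed) in √10 steps, and values are medians of duplicate plates imaged at 4×.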

[2] = compound: CC(=O)c1c(C)c2cnc(Nc3ccc(N4CCNCC4)cn3)nc2n(C2CCCC2)c1=O [Palbociclib] + C[C@]1(O)C[C@@H](c2nc(-c3ccc4ccc(-c5ccccc5)nc4c3)c3c(N)nccn32)C1 [Linsitinib] (partner 1 µM)
In short: as §1

[3] = compound: CC(=O)c1c(C)c2cnc(Nc3ccc(N4CCNCC4)cn3)nc2n(C2CCCC2)c1=O [Palbociclib] + Cc1cc(Nc2cc(N3CCN(C)CC3)nc(Sc3ccc(NC(=O)C4CC4)cc3)n2)n[nH]1 [Tozasertib] (partner 0.1 µM)
In short: as §1

[4] = compound: CC(=O)c1c(C)c2cnc(Nc3ccc(N4CCNCC4)cn3)nc2n(C2CCCC2)c1=O [Palbociclib] + Cc1nc(Nc2ncc(C(=O)Nc3c(C)cccc3Cl)s2)cc(N2CCN(CCO)CC2)n1 [Dasatinib] (partner 0.075 µM)
In short: as §1

Cell Line | relative viability ([1]; first compound 0.01 µM) | relative viability ([1]; first compound 0.03162 µM) | relative viability ([1]; first compound 0.1 µM) | relative viability ([1]; first compound 0.3162 µM) | relative viability ([1]; first compound 1 µM) | relative viability ([2]; first compound 0.01 µM) | relative viability ([2]; first compound 0.03162 µM) | relative viability ([2]; first compound 0.1 µM) | relative viability ([2]; first compound 0.3162 µM) | relative viability ([2]; first compound 1 µM) | relative viability ([3]; first compound 0.01 µM) | relative viability ([3]; first compound 0.03162 µM) | relative viability ([3]; first compound 0.1 µM) | relative viability ([3]; first compound 0.3162 µM) | relative viability ([3]; first compound 1 µM) | relative viability ([4]; first compound 0.01 µM) | relative viability ([4]; first compound 0.03162 µM) | relative viability ([4]; first compound 0.1 µM) | relative viability ([4]; first compound 0.3162 µM) | relative viability ([4]; first compound 1 µM)
EBC-1 | 0.193 | 0.165 | 0.195 | 0.17 | 0.18 | 0.923 | 0.843 | 0.647 | 0.554 | 0.293 | – | – | – | – | – | – | – | – | – | –
ChaGo-K-1 | 0.961 | 0.639 | 1.07 | 1.12 | 1.13 | – | – | – | – | – | 0.218 | 0.21 | 0.25 | 0.225 | 0.223 | 0.545 | 0.539 | 0.615 | 0.594 | 0.593
NCI-H1703 | 0.845 | – | 0.513 | 0.505 | 0.227 | 1.11 | 0.64 | 0.673 | 0.617 | 0.323 | – | – | – | – | – | – | – | – | – | –
NCI-H2170 | 1.23 | 1.07 | 1.11 | 1.13 | 0.785 | – | – | – | – | – | 0.697 | 0.75 | 0.737 | 0.77 | 0.655 | 0.488 | 0.515 | 0.549 | 0.534 | 0.521
HCC-44 | 0.738 | 0.803 | 0.789 | 0.747 | 0.85 | 0.661 | 0.648 | 0.691 | 0.679 | 0.661 | 0.871 | 0.781 | 1.1 | 1.1 | 1.11 | – | – | – | – | –
NCI-H1792 | 0.972 | 0.897 | 0.906 | 0.868 | 0.634 | 0.52 | 0.435 | 0.397 | 0.371 | 0.25 | – | – | – | – | – | 0.848 | 0.727 | 0.63 | 0.551 | 0.468
